According to US4031211A, “Adriamycin esters, their preparation and use” (priority 1975, dated 1977):
Read-outs that look alike come from different tables or passages of the source.

How the values were obtained:
[1] = system: Gross leukemia; assay: Antitumor effect on Gross leukemia in mice; conditions: iv, days 1,2,3; for TC (median survival time as compared to untreated controls) / TOX (mice which showed toxic lesions at the autopsy): Table 1
Experimental: (§1) The compounds according to the invention were tested on several in vitro systems and experimental mouse tumors, in comparison with adriamycin.

[2] = system: solid sarcoma 180; conditions: Table 2, i.v. per 5 days
Experimental: as §1

[3] = system: L 1210 leukemia; assay: Antitumor effect on L 1210 leukemia in mice
Experimental: as §1

[4] = system: Ascites sarcoma 180; assay: Antitumor effect on ascites sarcoma 180 in mice; conditions: for LTS (long term survivors, > 60 days) / TC (median survival time as compared to untreated controls) / TOX (mice which showed toxic lesions at the autopsy): Table 1
Experimental: as §1

[5] = system: experimental mouse tumors; assay: Antitumor/therapeutic activity and toxicity in experimental mouse tumors, overall statements; assay type: in vivo
[6] = Table 5, second experiment, 3.5 mg./kg.
[7] = Table 1, first experiment, ip, day 1, 10 mg./kg.
[8] = Table 1, second experiment, ip, day 1, 10 mg./kg.
[9] = Table 1, second experiment, ip, day 1, 12 mg./kg.
[10] = Table 1, second experiment, ip, day 1, 15 mg./kg.
[11] = Table 4, i.p. on day 1, 10 mg./kg.
[12] = Table 4, i.p. on day 1, 2 mg./kg.
[13] = Table 4, i.p. on day 1, 4 mg./kg.
[14] = Table 4, i.p. on day 1, 8 mg./kg.

With `COc1cccc2c1C(=O)c1c(O)c3c(c(O)c1C2=O)C[C@@](O)(C(=O)CO)C[C@@H]3O[C@H]1C[C@H](N)[C@H](O)[C@H](C)O1` [Adriamycin] the “TC (median survival time as compared to untreated controls)” value ([1]; 3.5 mg./kg.) was 143%, the “TOX (mice which showed toxic lesions at the autopsy)” value ([1]; 3.5 mg./kg.) was 1/10 and the “TC (median survival time as compared to untreated controls)” value ([1]; 4.5 mg./kg.) was 171%. For the same compound, the “TOX (mice which showed toxic lesions at the autopsy)” value ([1]; 6 mg./kg.) was 4/10, the TC ([1]; Table 5, first experiment, 3.5 mg./kg.) was 157% and the TC ([1]; Table 5, first experiment, 4.5 mg./kg.) was 178%. The TC [1, 6] was 143%, the TOX [1, 6] was 1/10 and the TC ([1]; Table 5, second experiment, 4.5 mg./kg.) was 171%. The “% tumor growth at day 11” value ([2]; 2.5 mg./kg.) was 42%, the “% tumor growth at day 11” value ([2]; 3 mg./kg.) was 33% and the “TC (median survival time as compared to untreated controls)” value ([3]; Table 1, first experiment, ip, day 1, 0.2 mg./kg.) was 111%. For the same compound, the “TC (median survival time as compared to untreated controls)” value ([3]; Table 1, first experiment, ip, day 1, 1 mg./kg.) was 133%, the “TC (median survival time as compared to untreated controls)” value ([3]; Table 1, first experiment, ip, day 1, 5 mg./kg.) was 139% and the “TC (median survival time as compared to untreated controls)” value [3, 7] was 150%. For the same compound, the “TOX (mice which showed toxic lesions at the autopsy)” value [3, 7] was 3/10, the “LTS (long term survivors, > 60 days)” value [3, 8] was 1/10 and the “TC (median survival time as compared to untreated controls)” value [3, 8] was 139%. The “TOX (mice which showed toxic lesions at the autopsy)” value [3, 8] was 1/10, the “TC (median survival time as compared to untreated controls)” value [3, 9] was 167% and the “TOX (mice which showed toxic lesions at the autopsy)” value [3, 9] was 2/10. The “TC (median survival time as compared to untreated controls)” value [3, 10] was 100%, the “TOX (mice which showed toxic lesions at the autopsy)” value [3, 10] was 6/10 and the TC ([3]; Table 3, ip, day 1, 2.5 mg./kg.) was 122%. The TC ([3]; Table 3, ip, day 1, 5 mg./kg.) was 155%, the LTS ([3]; Table 3, ip, day 1, 10 mg./kg.) was 2/9 and the TC ([3]; Table 3, ip, day 1, 10 mg./kg.) was 233%. For the same compound, the TOX ([3]; Table 3, ip, day 1, 10 mg./kg.) was 2/9, the TC ([3]; Table 4, i.p. on day 1, 2.5 mg./kg.) was 122% and the TC ([3]; Table 4, i.p. on day 1, 5 mg./kg.) was 155%. The LTS [3, 11] was 2/9, the TC [3, 11] was 233% and the TOX [3, 11] was 2/9. For the same compound, the TC ([3]; Table 5, ip, day 1, 2.5 mg./kg.) was 122%, the TC ([3]; Table 5, ip, day 1, 5 mg./kg.) was 155% and the LTS ([3]; Table 5, ip, day 1, 10 mg./kg.) was 2/9. For the same compound, the TC ([3]; Table 5, ip, day 1, 10 mg./kg.) was 233%, the TOX ([3]; Table 5, ip, day 1, 10 mg./kg.) was 2/9 and the “LTS (long term survivors, > 60 days)” value ([4]; ip, day 1, 1 mg./kg.) was 3/10. For the same compound, the “TC (median survival time as compared to untreated controls)” value ([4]; ip, day 1, 1 mg./kg.) was 243%, the “TOX (mice which showed toxic lesions at the autopsy)” value ([4]; ip, day 1, 1 mg./kg.) was 0/10 and the “LTS (long term survivors, > 60 days)” value ([4]; ip, day 1, 5 mg./kg.) was 3/10. For the same compound, the “TC (median survival time as compared to untreated controls)” value ([4]; ip, day 1, 5 mg./kg.) was 150%, the “TOX (mice which showed toxic lesions at the autopsy)” value ([4]; ip, day 1, 5 mg./kg.) was 0/10 and the LTS ([4]; Table 3, ip, day 1, 2 mg./kg.) was 1/10. For the same compound, the TC ([4]; Table 3, ip, day 1, 2 mg./kg.) was 203%, the LTS ([4]; Table 3, ip, day 1, 4 mg./kg.) was 2/10 and the TC ([4]; Table 3, ip, day 1, 4 mg./kg.) was 242%. The LTS ([4]; Table 3, ip, day 1, 8 mg./kg.) was 2/10, the TC ([4]; Table 3, ip, day 1, 8 mg./kg.) was 127% and the TOX ([4]; Table 3, ip, day 1, 8 mg./kg.) was 8/10. The LTS [4, 12] was 4/10, the TC [4, 12] was 271% and the LTS [4, 13] was 5/10. For the same compound, the TC [4, 13] was 493%, the TOX [4, 13] was 1/10 and the LTS [4, 14] was 3/10. The TC [4, 14] was 317%, the TOX [4, 14] was 4/10 and the LTS ([4]; Table 5, ip, day 1, 2 mg./kg.) was 4/10. The TC ([4]; Table 5, ip, day 1, 2 mg./kg.) was 271%, the LTS ([4]; Table 5, ip, day 1, 4 mg./kg.) was 5/10 and the TC ([4]; Table 5, ip, day 1, 4 mg./kg.) was 493%. The TOX ([4]; Table 5, ip, day 1, 4 mg./kg.) was 1/10, the LTS ([4]; Table 5, ip, day 1, 8 mg./kg.) was 3/10 and the TC ([4]; Table 5, ip, day 1, 8 mg./kg.) was 317%. The TOX ([4]; Table 5, ip, day 1, 8 mg./kg.) was 4/10.

For `CCCCCC(=O)OCC(=O)OCC(=O)C1(O)Cc2c(O)c3c(c(O)c2C(OC2CC(N)C(O)C(C)O2)C1)C(=O)c1c(OC)cccc1C3=O.Cl` (centres unmarked) [adriamycin-14-0-hexanoyl glycolate, Adriamycin-14-0-Hexanoyl Glycolate Hydrochloride], the “toxicity compared with adriamycin” value [5] was “less toxic”, the “activity compared with adriamycin” value ([5]; tumor not given) was “as active as adriamycin” and the TC [3, 12] was 133%. The TC [3, 13] was 144%, the LTS [3, 14] was 1/9 and the TC [3, 14] was 155%. For the same compound, the LTS [4, 12] was 1/10, the TC [4, 12] was 250% and the LTS [4, 13] was 5/10. The TC [4, 13] was 493%, the LTS [4, 14] was 3/10 and the TC [4, 14] was 346%. It also gave a TC ([4]; Table 4, i.p. on day 1, 16 mg./kg.) of 128%.
